A value given as a limit tells only on which side of the number the result lay.

The target in one test is AMPK. Nature of the test: AMPK activation, enzyme-linked immunosorbent assay. Particulars: Table 8, compounds of Table 1. The test is classed as biochemical. An outline of the steps:
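AMPK activation by test compounds was measured by enzyme-linked immunosorbent assay.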
In the case of `Cc1c(C(=O)NC2CCN(Cc3cccc(C#N)c3)CC2)oc2cc(OC3CCN(c4ccc(C(F)(F)F)cc4)CC3)ccc12` [Compound 1-66, N-(1-(3-cyanobenzyl)piperidin-4-yl)-3-methyl-6-(1-(4-(trifluoromethyl)phenyl)piperidin-4-yloxy)benzofuran-2-carboxamide], the EC50 (as a rule, the concentration giving half of the maximal effect) is below 100 nM.

In turn, `O=C(NC1CCNCC1)c1cc2ccc(OC3CCN(c4ccc(C(F)(F)F)cc4)CC3)cc2o1` [Compound 1-84, N-(piperidin-4-yl)-6-(1-(4-(trifluoromethyl)phenyl)piperidin-4-yloxy)benzofuran-2-carboxamide] yielded an EC50 of 5000 to 10000 nM.

In turn, `O=C(NC1CCN(C(=O)c2ccncc2)CC1)c1sc2cc(OC3CCN(c4ccc(C(F)(F)F)cc4)CC3)ccc2c1Cl` [Compound 1-155, 3-chloro-N-(1-isonicotinoylpiperidin-4-yl)-6-(1-(4-(trifluoromethyl)phenyl)piperidin-4-yloxy)benzo[b] thiophene-2-carboxamide] gave a 50% effective concentration (EC50) below 100 nM.

Compound `Cc1c(C(=O)NC2CCN(Cc3ccncc3)CC2)oc2cc(OC3CCN(c4ccc(C(F)(F)F)cc4)CC3)ccc12` [Compound 1-65, 3-methyl-N-(1-(pyridin-4-ylmethyl)piperidin-4-yl)-6-(1-(4-(trifluoromethyl)phenyl)piperidin-4-yloxy)benzofuran-2-carboxamide] registered an EC50 below 100 nM.

`CC(C)(C)OC(=O)N1CCC(NC2CCc3cc(OC4CCN(c5ccc(C(F)(F)F)cc5)CC4)ccc32)CC1` (stereo not shown) [Compound 1-156, tert-butyl 4-(5-(1-(4-(trifluoromethyl)phenyl)piperidin-4-yloxy)-2,3-dihydro-1H-inden-1-ylamino)piperidine-1-carboxylate] showed an EC50 of 100 to 500 nM.

The compound `Fc1ccc(CN2CCC(NC3CCc4cc(OC5CCN(c6ccc(C(F)(F)F)cc6)CC5)ccc43)CC2)cc1` (stereo not shown) [Compound 1-159, 1-(4-fluorobenzyl)-N-(5-(1-(4-(trifluoromethyl)phenyl)piperidin-4-yloxy)-2,3-dihydro-1H-inden-1-yl)piperidin-4-amine] showed an EC50 of 100 to 500 nM.

For the compound `O=S(=O)(NC1CCN(Cc2ccc(C(F)(F)F)cc2)CC1)c1ccc(OC2CCN(c3ccc(C(F)(F)F)cc3)CC2)nc1` [Compound 1-58, N-(1-(4-(trifluoromethyl)benzyl)piperidin-4-yl)-6-(1-(4-(trifluoromethyl)phenyl)piperidin-4-yloxy)pyridine-3-sulfonamide], the EC50 was below 100 nM.

The test is the same for the next values; noted with them: Table 9, compounds of Table 2.
Regarding `O=C(NC1CCN(Cc2ccc(C(F)(F)F)cc2)CC1)c1ccc2[nH]c3c(c2c1)CN(Cc1ccccc1)CC3` [Compound 2-5, 2-benzyl-N-(1-(4-trifluoromethylbenzyl)piperidin-4-yl)-2,3,4,5-tetrahydro-1N-pyrido[4,3-b]indole-8-carboxamide], the EC50 is 1000 to 5000 nM.

In turn, `Cn1c2c(c3cc(C(=O)NC4CCN(Cc5cccnc5)CC4)ccc31)CN(Cc1ccc(C(F)(F)F)cc1)CC2` [Compound 2-18, 5-methyl-N-(1-(pyridin-3-ylmethyl)piperidin-4-yl)-2-(4-(trifluoromethyl)benzyl)-2,3,4,5-tetrahydro-1H-pyrido[4,3-b]indole-8-carboxamide] returned an EC50 of 1000 to 5000 nM.

For the compound `Cn1cnc(CN2CCC(NC(=O)c3ccc4[nH]c5c(c4c3)CN(Cc3ccc(C(F)(F)F)cc3)CC5)CC2)c1` [Compound 2-53, N-(1-((1-methyl-1H-imidazol-4-yl)methyl)piperidin-4-yl)-2-(4-(trifluoromethyl)benzyl)-2,3,4,5-tetrahydro-1H-pyrido[4,3-b]indole-8-carboxamide], the EC50 fell in the range of 10000 to 50000 nM.

The test is the same for the next values; noted with them: Table 10, compounds of Table 3.
The compound `N#Cc1ccc(CN2CCC(NC(=O)c3cnc(OC4CCN(Cc5ccc(C(F)(F)F)cc5)CC4)s3)CC2)cc1` [Compound 3-25, N-(1-(4-cyanobenzyl)piperidin-4-yl)-2-(1-(4-(trifluoromethyl)benzyl)piperidin-4-yloxy)thiazole-5-carboxamide] had an EC50 below 100 nM.

In the case of `N#Cc1ccc(CN2CCC(NC(=O)c3cnc(OC4CCN(c5ccc(C(F)(F)F)cc5)CC4)s3)CC2)cc1` [Compound 3-23, N-(1-(4-cyanobenzyl)piperidin-4-yl)-2-(1-(4-(trifluoromethyl)phenyl)piperidin-4-yloxy)thiazole-5-carboxamide], the concentration for a half-maximal effect (EC50) was below 100 nM.

Staying with this test, now noted: Table 11, compounds of Table 4.
For the compound `O=C(N[C@H]1CCN(Cc2ccc(F)cc2)C1)c1ccc(C(=O)N2CCN(c3ccc(Cl)cc3)CC2)cn1` [Compound 4-4, (S)-5-(4-(4-chlorophenyl)piperazine-1-carbonyl)-N-(1-(4-fluorobenzyl)pyrrolidin-3-yl)picolinamide], the 50% effective concentration (EC50) fell in the range of 1000 to 5000 nM.

The same test, now with this note: Table 12, compounds of Table 5.
In turn, `N#Cc1ccc(CN2CCC(NC(=O)c3cccc(O[C@@H]4CCN(Cc5ccc(C#N)c(F)c5)C[C@H]4F)c3)CC2)cc1` [Compound 5-129, 3-((3,4-trans)-1-(4-cyano-3-fluorobenzyl)-3-fluoropiperidin-4-yloxy)-N-(1-(4-cyanobenzyl)piperidin-4-yl)benzamide] had a half-maximal effective concentration (EC50) below 1000 nM.

`COc1ccc(CN2CCC(NC(=O)c3cccc(OC4CCN(Cc5ccc(-c6ccccn6)cc5)CC4)c3)CC2)cc1` [Compound 5-106, N-(1-(4-methoxybenzyl)piperidin-4-yl)-3-(1-(4-(pyridin-2-yl)benzyl)piperidin-4-yloxy)benzamide] yielded an EC50 below 1000 nM.

Turning to `N#Cc1ccc(CN2CCC(NC(=O)c3cccc(OC4CCN(Cc5ccc(N6CCCC6)cc5)CC4)c3)CC2)cc1` [Compound 5-116, N-(1-(4-cyanobenzyl)piperidin-4-yl)-3-(1-(4-(pyrrolidin-1-yl)benzyl)piperidin-4-yloxy)benzamide], the concentration for a half-maximal effect (EC50) is below 1000 nM.

Staying with this test, now noted: Table 13, compounds of Table 6.
Compound `N#Cc1ccc(CN2CCC(NC(=O)c3cc4cc(C(=O)N5CCN(c6ccc(C(F)(F)F)cc6)CC5)ccc4o3)CC2)cc1` [Compound 6-116, N-(1-(4-cyanobenzyl)piperidin-4-yl)-5-(4-(4-(trifluoromethyl)phenyl)piperazine-1-carbonyl) benzofuran-2-carboxamide] came in with an EC50 below 100 nM.

The compound `N#Cc1ccc(N2CCC(C(=O)Nc3ccc4oc(C(=O)N5CCC(Oc6ccc(C(F)(F)F)cc6)CC5)cc4c3)CC2)cc1` [Compound 6-22, 1-(4-cyanophenyl)-N-(2-(4-(4-(trifluoromethyl)phenoxy)piperidine-1-carbonyl)benzofuran-5-yl)piperidine-4-carboxamide] displayed a concentration giving a half-maximal response (EC50) below 100 nM.

As to `COc1ccc(CN2CCC(NC(=O)c3cc4ccc(C(=O)N5CCN(Cc6ccc(S(C)(=O)=O)cc6)CC5)cc4o3)CC2)cc1` [Compound 6-3, N-(1-(4-methoxybenzyl)piperidin-4-yl)-6-(4-(4-(methylsulfonyl)benzyl)piperazine-1-carbonyl) benzofuran-2-carboxamide], the EC50 was below 100 nM.

For `N#Cc1ccc(CN2CCC(NC(=O)c3cc4cc(NC(=O)C5CCN(c6ccc(C#N)cc6)CC5)ccc4o3)CC2)cc1` [Compound 6-76, N-(2-(1-(4-cyanobenzyl)piperidin-4-ylcarbamoyl)benzofuran-5-yl)-1-(4-cyanophenyl)piperidine-4-carboxamide], the EC50 was below 100 nM.

As to `CS(=O)(=O)c1cccc(CN2CCN(C(=O)c3ccc4oc(C(=O)NC5CCN(Cc6ccc(-n7cccn7)cc6)CC5)cc4c3)CC2)c1` [Compound 6-153, N-(1-(4-(1H-pyrazol-1-yl)benzyl)piperidin-4-yl)-5-(4-(3-(methylsulfonyl)benzyl)piperazine-1-carbonyl) benzofuran-2-carboxamide], the 50% effective concentration (EC50) is below 100 nM.

As to `COc1ccc(CN2CCC(NC(=O)c3cc4cc(C(=O)N5CCN(Cc6ccc(S(C)(=O)=O)c(C(F)(F)F)c6)CC5)ccc4o3)CC2)cc1F` [Compound 6-132, N-(1-(3-fluoro-4-methoxybenzyl)piperidin-4-yl)-5-(4-(4-(methylsulfonyl)-3-(trifluoromethyl)benzyl)piperazine-1-carbonyl) benzofuran-2-carboxamide], the EC50 was below 100 nM.

Consider `CS(=O)(=O)c1ccc(O[C@H]2CCN(C(=O)c3ccc4oc(C(=O)NC5CCN(Cc6ccc(OC(F)(F)F)cc6)CC5)cc4c3)C[C@@H]2F)cc1` [Compound 6-115, 5-((3,4-trans)-3-fluoro-4-(4-(methylsulfonyl)phenoxy)piperidine-1-carbonyl)-N-(1-(4-(trifluoromethoxy)benzyl)piperidin-4-yl)benzofuran-2-carboxamide], for which the 50% effective concentration (EC50) was below 100 nM.

As to `CS(=O)(=O)c1ccc(CN2CCN(C(=O)c3ccc4cc(C(=O)NC5CCN(Cc6ccc(OC(F)(F)C(F)F)cc6)CC5)oc4c3)CC2)cc1` [Compound 6-7, 6-(4-(4-(methylsulfonyl)benzyl)piperazine-1-carbonyl)-N-(1-(4-(1,1,2,2-tetrafluoroethoxy)benzyl)piperidin-4-yl)benzofuran-2-carboxamide], the 50% effective concentration (EC50) was below 100 nM.

Still in this test, the particulars now being: Table 14, compounds of Table 7.
`COc1ccc(CN2CCC(NC(=O)c3ccc(C(=O)N4CCC(C(=O)c5ccc(N6CCCC6)cc5)CC4)nc3)CC2)cc1F` [Compound 7-113, N-(1-(3-fluoro-4-methoxybenzyl)piperidin-4-yl)-6-(4-(4-(pyrrolidin-1-yl)benzoyl)piperidine-1-carbonyl)nicotinamide] had a half-maximal effective concentration (EC50) below 1000 nM.

`COc1ccc(C(=O)C2CCN(C(=O)c3ccc(C(=O)NC4CCN(Cc5ccc(F)c(OC)c5)CC4(C)C)cn3)CC2)cc1` (stereo not shown) [Compound 7-87, N-(1-(4-fluoro-3-methoxybenzyl)-3,3-dimethylpiperidin-4-yl)-6-(4-(4-methoxybenzoyl)piperidine-1-carbonyl)nicotinamide] displayed a 50% effective concentration (EC50) of 1000 to 10000 nM.

In turn, `O=C(NC1CCN(Cc2ccc(OC(F)(F)F)cc2)CC1)c1ccc(C(=O)N2CCC(Oc3cccc(NC(=O)C4CC4)c3)CC2)nc1` [Compound 7-108, 6-(4-(3-(cyclopropanecarboxamido)phenoxy)piperidine-1-carbonyl)-N-(1-(4-(trifluoromethoxy)benzyl)piperidin-4-yl)nicotinamide] returned an EC50 below 1000 nM.

In turn, `COc1ccc(C(=O)C2CCN(C(=O)c3ccc(C(=O)NC4CCN(Cc5ccc(-n6ccnc6)cc5)C[C@H]4F)cn3)CC2)cc1` (stereo partly drawn) [Compound 7-42, N-((3,4-trans)-1-(4-(1H-imidazol-1-yl)benzyl)-3-fluoropiperidin-4-yl)-6-(4-(4-methoxybenzoyl)piperidine-1-carbonyl)nicotinamide] registered an EC50 of 1000 to 10000 nM.

The values are drawn from patent publication US9409884B2 (Rigel Pharmaceuticals, Inc., priority 2012, dated 2016).
